Laboratory results reported in PMC9867436, “Drug Repurposing to Inhibit Histamine N-Methyl Transferase” (Molecules, 2023).
Read-outs that look alike come from different tables or passages of the source.

Biological target: T1, Histamine N-Methyltransferase (HNMT) (Homo sapiens, UniProt P50135)
T1 construct: Recombinant Human Histamine N-Methyltransferase (rhHNMT, R&D Systems 7637-MT)
Test: fluorescence assay of histamine methylation by recombinant HNMT (ex […]/em […] nm)
Type: biochemical

T1 sequence (P50135 whole entry): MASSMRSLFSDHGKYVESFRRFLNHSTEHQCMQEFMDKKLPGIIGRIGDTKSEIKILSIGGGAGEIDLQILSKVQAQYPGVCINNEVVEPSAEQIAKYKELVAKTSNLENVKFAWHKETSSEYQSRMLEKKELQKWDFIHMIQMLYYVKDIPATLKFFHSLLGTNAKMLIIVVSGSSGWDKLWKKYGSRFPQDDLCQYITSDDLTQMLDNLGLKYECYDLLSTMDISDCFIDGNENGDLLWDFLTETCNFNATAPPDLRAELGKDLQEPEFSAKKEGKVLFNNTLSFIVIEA

Structure (SMILES): CN1C[C@H](C(=O)N[C@]2(C)O[C@@]3(O)[C@@H]4CCCN4C(=O)[C@H](Cc4ccccc4)N3C2=O)C[C@@H]2c3cccc4[nH]cc(c34)C[C@H]21 [dihydroergotamine]
- IC50: 72.9 µM

Structure (SMILES): Cc1nc(N)nc(N)c1-c1ccc(Cl)c(Cl)c1 [metoprine, reference compound]
- IC50 (read-out: IC50): 0.0667 µM

Structure (SMILES): N#Cc1ccc2[nH]cc(CCCCN3CCN(c4ccc5oc(C(N)=O)cc5c4)CC3)c2c1 [vilazodone]
- IC50 (read-out: IC50): 45 µM
